According to patent US20230312605A1, “PYRROLO[2,1-F][1,2,4]TRIAZINES AND PREPARATION AND USES THEREOF” (BioSplice Therapeutics, Inc., priority 2021, published 2023):
pEC50: −log10 of the molar value.

Target: recombinant DYRK1A kinase (Homo sapiens (Human), UniProt Q13627)
Test: DYRK1A kinase assay (Ser/Thr 18 peptide Z-lyte FRET assay)
Type: biochemical
Conditions: recombinant DYRK1A 0.25 µg/mL, ATP 15 µM, Ser/Thr peptide 18 4 µM, one hour at room temperature; table head prints EC50, method says IC50
Procedure: Representative compounds were screened using the assay procedure for DYRK1A kinase activity as described below.
Each compound was dissolved in DMSO as a 10 mM stock and used to prepare compound source plates. Serial dilution (1:3, 11-point dose-response curves from 10 µM to 0.00016 µM) and compound transfer was performed using the ECHO 550 (Labcyte, Sunnyvale, CA) into 1536-well black-walled round bottom plates (Corning).
The DYRK1A kinase assay was run using the Ser/Thr 18 peptide Z-lyte assay kit according to manufacturer’s instructions (Life Technologies- a Division of Thermo-Fisher). This is a non-radioactive assay using fluorescence resonance energy transfer (FRET) between coumarin and fluorescein to detect kinase activity which is represented as a ratio of coumarin emission/fluorescein emission.
Briefly, recombinant DYRK1A kinase, ATP and Ser/Thr peptide 18 were prepared in 1X Kinase buffer to final concentrations of 0.25 µg/mL, 15 µM, and 4 µM respectively. The mixture was allowed to incubate with the representative compounds for one hour at room temperature. All reactions were performed in duplicate. Unphosphorylated (“0% Control”) and phosphorylated (“100% control”) forms of Ser/Thr 18 served as control reactions. Additionally, an 11-point dose-response curve of Staurosporine (1uM top) was run to serve as a positive compound control.
After incubation, Development Reagent A was diluted in Development Buffer then added to the reaction and allowed to further incubate for one hour at room temperature. The plate was read at Ex 400 Em 455 to detect the coumarin signal and Ex 400 Em 520 to measure the signal (EnVision Multilabel Plate Reader, PerkinElmer).
The Emission ratio (Em) was calculated as a ratio of the coumarin (C) emission signal (at 445 nm)/Fluorescein (F) emission signal (at 520 nm). The percent phosphorylation was then calculated using the following formula: [1 — ((Em ratio X F100%)—C100%)/ ((C0%—C100%) + (Em ratio X (F100% - F0%)))]. Dose-response curves were generated, and inhibitory concentration (IC50) values were calculated using non-linear regression curve fit in the Dotmatics’ Studies Software (Bishops Stortford, UK).

Compound	pEC50
CCn1c(C)nc2ccc(-c3ccn4nc(NCC(C)(C)F)ncc34)nc21 [Compound 926, 5-(3-Ethyl-2-methyl-3H-imidazo[4,5-b]pyridin-5-yl)-N-(2-fluoro-2-methylpropyl)pyrrolo[2,1-f][1,2,4]triazin-2-amine]	7.57
Cc1nc2ccc(-c3ccn4nc(NC5CC(F)(F)C5)ncc34)nc2n1CC(F)F [Compound 1088, N-(3,3-Difluorocyclobutyl)-5-(3-(2,2-difluoroethyl)-2-methyl-3H-imidazo [4,5-b]pyridin-5-yl)pyrrolo[2,1-f][1,2,4]triazin-2-amine]	8.40
CO[C@H]1C[C@@H](Nc2ncc3c(-c4ccc5nc(C)n(CC(F)F)c5n4)ccn3n2)C1 [Compound 1091, 5-(3-(2,2-Difluoroethyl)-2-methyl-3H-imidazo[4,5-b]pyridin-5-yl)-N-(cis-3-methoxycyclobutyl)pyrrolo[2,1-f][1,2,4]triazin-2-amine]	5.48
Cc1nc2ccc(-c3ccn4nc(N[C@H]5CC[C@@H](O)CC5)ncc34)nc2n1CC(F)F [Compound 1109, cis-4-((5-(3-(2,2-Difluoroethyl)-2-methyl-3H-imidazo[4,5-b]pyridin-5-yl)pyrrolo[2,1-f][1,2,4]triazin-2-yl)amino)cyclohexan-1-ol]	8.22
Cc1nc2ccc(-c3ccn4nc(N[C@H]5CC[C@@](C)(O)CC5)ncc34)nc2n1CC(F)F [Compound 1110, (1s,4s)-4-((5-(3-(2,2-Difluoroethyl)-2-methyl-3H-imidazo[4,5-b]pyridin-5-yl)pyrrolo[2,1-f][1,2,4]triazin-2-yl)amino)-1-methylcyclohexan-1-ol]	8.52
Cc1nc2ccc(-c3ccn4nc(N[C@H]5CC[C@@H](OC(F)F)CC5)ncc34)nc2n1CC(F)F [Compound 1113, N-(cis-4-(Difluoromethoxy)cyclohexyl)-5-(3-(2,2-difluoroethyl)-2-methyl-3H-imidazo[4,5-b]pyridin-5-yl)pyrrolo[2,1-f][1,2,4]triazin-2-amine]	8.15
CCO[C@H]1CC[C@@H](Nc2ncc3c(-c4ccc5nc(C)n(CC(F)F)c5n4)ccn3n2)CC1 [Compound 1115, N-(cis-4-Ethoxycyclohexyl)-5-(3-(2,2-difluoroethyl)-2-methyl-3H-imidazo [4,5-b]pyridin-5-yl)pyrrolo[2,1-f][1,2,4]triazin-2-amine]	8.52
COCCO[C@H]1CC[C@@H](Nc2ncc3c(-c4ccc5nc(C)n(CC(F)F)c5n4)ccn3n2)CC1 [Compound 1117, 5-(3-(2,2-Difluoroethyl)-2-methyl-3H-imidazo[4,5-b]pyridin-5-yl)-N-(cis-4-(2-methoxyethoxy)cyclohexyl)pyrrolo[2,1-f][1,2,4]triazin-2-amine]	8.40
COCCO[C@H]1CC[C@H](Nc2ncc3c(-c4ccc5nc(C)n(CC(F)F)c5n4)ccn3n2)CC1 [Compound 1118, 5-(3-(2,2-Difluoroethyl)-2-methyl-3H-imidazo[4,5-b]pyridin-5-yl)-N-(trans-4-(2-methoxyethoxy)cyclohexyl)pyrrolo[2,1-f][1,2,4]triazin-2-amine]	8.30
Cc1nc2ccc(-c3ccn4nc(N[C@H]5CC[C@@H](N6CCOCC6)CC5)ncc34)nc2n1CC(F)F [Compound 1125, 5-(3-(2,2-Difluoroethyl)-2-methyl-3H-imidazo[4,5-b]pyridin-5-yl)-N-(cis-4-morpholinocyclohexyl)pyrrolo[2,1-f][1,2,4]triazin-2-amine]	7.74
Cc1nc2ccc(-c3ccn4nc(NC5CCN(C)CC5)ncc34)nc2n1CC(F)F [Compound 1131, 5-(3-(2,2-Difluoroethyl)-2-methyl-3H-imidazo[4,5-b]pyridin-5-yl)-N-(1-methylpiperidin-4-yl)pyrrolo[2,1-f][1,2,4]triazin-2-amine]	7.80
Cc1nc2ccc(-c3ccn4nc(NC5CCOCC5)ncc34)nc2n1CC(F)F [Compound 1132, 5-(3-(2,2-Difluoroethyl)-2-methyl-3H-imidazo[4,5-b]pyridin-5-yl)-N-(tetrahydro-2H-pyran-4-yl)pyrrolo[2,1-f][1,2,4]triazin-2-amine]	8.30
Cn1nnc2ccc(-c3ccn4nc(NCC(C)(C)F)ncc34)cc21 [Compound 1210, N-(2-Fluoro-2-methylpropyl)-5-(1-methyl-1H-benzo[d][1,2,3]triazol-6-yl) pyrrolo[2,1-f][1,2,4]triazin-2-amine]	7.18
CC(C)(F)CNc1ncc2c(-c3ccc4ncccc4c3)ccn2n1 [Compound 1281, N-(2-Fluoro-2-methylpropyl)-5-(quinolin-6-yl)pyrrolo[2,1-f][1,2,4]triazin-2-amine]	7.82
COCCO[C@H]1C[C@@H](Nc2ncc3c(-c4ccc5ncccc5c4)ccn3n2)C1 [Compound 1309, N-(cis-3-(2-Methoxyethoxy)cyclobutyl)-5-(quinolin-6-yl)pyrrolo[2,1-f][1,2,4]triazin-2-amine]	8.52
O[C@H]1CC[C@@H](Nc2ncc3c(-c4ccc5ncccc5c4)ccn3n2)CC1 [Compound 1322, cis-4-((5-(Quinolin-6-yl)pyrrolo[2,1-f][1,2,4]triazin-2-yl)amino)cyclohexan-1-ol]	6.41
C[C@]1(O)CC[C@@H](Nc2ncc3c(-c4ccc5ncccc5c4)ccn3n2)CC1 [Compound 1323, (1s,4s)-1-Methyl-4-((5-(quinolin-6-yl)pyrrolo[2,1-f][1,2,4]triazin-2-yl)amino)cyclohexan-1-ol]	8.15
CN(C)[C@H]1CC[C@@H](Nc2ncc3c(-c4ccc5ncccc5c4)ccn3n2)CC1 [Compound 1336, cis-N^1,N^1-Dimethyl-N^4-(5-(quinolin-6-yl)pyrrolo[2,1-f][1,2,4]triazin-2-yl) cyclohexane-1,4-diamine]	7.60
CN1CC2(CC(Nc3ncc4c(-c5ccc6ncccc6c5)ccn4n3)C2)C1 [Compound 1348, N-(2-Methyl-2-azaspiro[3.3]heptan-6-yl)-5-(quinolin-6-yl)pyrrolo[2,1-f] [1,2,4]triazin-2-amine]	8.30
CC(C)(F)CNc1ncc2c(-c3ccc4nccnc4c3)ccn2n1 [Compound 1352, N-(2-Fluoro-2-methylpropyl)-5-(quinoxalin-6-yl)pyrrolo[2,1-f][1,2,4]triazin-2-amine]	7.57
CO[C@H]1C[C@@H](Nc2ncc3c(-c4ccc5nccnc5c4)ccn3n2)C1 [Compound 1375, N-(cis-3-Methoxycyclobutyl)-5-(quinoxalin-6-yl)pyrrolo[2,1-f][1,2,4]triazin-2-amine]	8.22
CO[C@H]1C[C@H](Nc2ncc3c(-c4ccc5nccnc5c4)ccn3n2)C1 [Compound 1376, N-(trans-3-Methoxycyclobutyl)-5-(quinoxalin-6-yl)pyrrolo[2,1-f][1,2,4] triazin-2-amine]	7.85
COC[C@H]1C[C@H](Nc2ncc3c(-c4ccc5nccnc5c4)ccn3n2)C1 [Compound 1377, N-(trans-3-(Methoxymethyl)cyclobutyl)-5-(quinoxalin-6-yl)pyrrolo[2,1-f] [1,2,4]triazin-2-amine]	8.10
FC1(F)CCC(Nc2ncc3c(-c4ccc5nccnc5c4)ccn3n2)CC1 [Compound 1392, N-(4,4-Difluorocyclohexyl)-5-(quinoxalin-6-yl)pyrrolo[2,1-f][1,2,4]triazin-2-amine]	6.28
COc1ncnc2ccc(-c3ccn4nc(NCC(C)(C)F)ncc34)cc12 [Compound 1423, N-(2-Fluoro-2-methylpropyl)-5-(4-methoxyquinazolin-6-yl)pyrrolo[2,1-f] [1,2,4]triazin-2-amine]	6.83
CCO[C@H]1C[C@@H](Nc2ncc3c(-c4cnc5ncccc5c4)ccn3n2)C1 [Compound 1520, N-(cis-3-Ethoxycyclobutyl)-5-(1,8-naphthyridin-3-yl)pyrrolo[2,1-f][1,2,4] triazin-2-amine]	6.02
COCCO[C@H]1C[C@@H](Nc2ncc3c(-c4cnc5ncccc5c4)ccn3n2)C1 [Compound 1522, N-(cis-3-(2-Methoxyethoxy)cyclobutyl)-5-(1,8-naphthyridin-3-yl)pyrrolo [2,1-f][1,2,4]triazin-2-amine]	8.52
O[C@H]1CC[C@@H](Nc2ncc3c(-c4cnc5ncccc5c4)ccn3n2)CC1 [Compound 1535, cis-4-((5-(1.8-Naphthyridin-3-yl)pyrrolo[2,1-f][1,2,4]triazin-2-yl)amino) cyclohexan-1-ol]	8.15
C[C@]1(O)CC[C@@H](Nc2ncc3c(-c4cnc5ncccc5c4)ccn3n2)CC1 [Compound 1536, (1 s,4s)-4-((5-(1,8 -Naphthyridin-3-yl)pyrrolo [2,1-f] [1,2,4]triazin-2-yl)amino)-1-methylcyclohexan-1-ol]	8.30
CO[C@H]1CC[C@@H](Nc2ncc3c(-c4cnc5ncccc5c4)ccn3n2)CC1 [Compound 1537, N-(cis-4-Methoxycyclohexyl)-5-(1,8-naphthyridin-3-yl)pyrrolo[2,1-f] [1,2,4]triazin-2-amine]	8.52
